Data on nine molecules can be found in ChEMBL document CHEMBL1125886, “Interphenylene 7-oxabicyclo[2.2.1]heptane thromboxane A2 antagonists. Semicarbazone omega-chains” (J Med Chem, 1991).

Structures are written as SMILES.

For data set [1], the species on record is Homo sapiens. Put plainly: The compound was tested for inhibition of arachidonic acid(800 uM) induced platelet aggregation in human platelet rich plasma. The data set is classed as functional. The conditions noted are these: read-out: I50.
For data set [2], the species on record is Homo sapiens. Put plainly: The compound was tested for inhibition of U-46,619(10 uM) induced platelet aggregation in human platelet rich plasma(PRP). Conditions: read-out: I50. The data set is classed as functional.
The target of data set [3] is T1, Thromboxane A2 receptor (Homo sapiens, UniProt P21731).
T1 sequence (P21731 whole entry): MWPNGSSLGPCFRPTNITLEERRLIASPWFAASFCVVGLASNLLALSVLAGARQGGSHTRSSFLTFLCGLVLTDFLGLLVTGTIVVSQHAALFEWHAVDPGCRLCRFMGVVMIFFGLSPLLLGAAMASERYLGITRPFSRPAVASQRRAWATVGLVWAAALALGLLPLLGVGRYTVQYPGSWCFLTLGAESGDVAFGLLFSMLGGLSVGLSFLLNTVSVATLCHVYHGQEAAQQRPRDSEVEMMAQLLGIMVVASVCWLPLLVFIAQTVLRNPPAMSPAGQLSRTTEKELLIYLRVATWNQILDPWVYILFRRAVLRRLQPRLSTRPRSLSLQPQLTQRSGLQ
The data set can be described thus: The compound was tested for inhibition of specific binding of [3H]-SQ 29,548 to thromboxane A2 receptor in human platelet membranes. It counts as cell membranes.

The test system of data set [4] is Mus musculus. The data set can be described thus: The compound was tested in vivo for duration of action after 0.2 mg/kg peroral administration to protect from U-46,619-induced(2.0 mg/kg, iv) death in mice. The arrangement: dose 0.2 mg/kg, route oral. Conditions: po. It counts as ADME, organism-based.
Data set [5] has as its system Mus musculus. Put plainly: The compound was tested in vivo for duration of action after 10 mg/kg peroral administration to protect from U-46,619-induced(2.0 mg/kg, iv) death in mice. The arrangement: dose 10 mg/kg, route oral. The data set is classed as ADME, organism-based. Conditions: po.

One may read the Kd as the constant that tells how readily two partners part at equilibrium. A low value points to tighter binding.

Take `O=C(O)Cc1ccc(CCC2C3CCC(O3)C2/C=N/NC(=O)Nc2ccccc2)cc1` (stereo not drawn): the IC50 in data set [1] stood at 688000 nM.

With `O=C(O)CCC/C=C\CC1C2CCC(O2)C1/C=N/NC(=O)Nc1ccccc1` (stereo not drawn), the IC50 in data set [1] amounted to 230 nM; in data set [2] it was 710 nM. In addition, the affinity in data set [3], expressed as Kd, was 39.4 nM.

Consider `O=C(O)COc1cccc(CC2C3CCC(O3)C2/C=N/NC(=O)Nc2ccccc2)c1` (stereo not drawn), for which the IC50 in data set [1] turned out to be 7200 nM; in data set [2], 25000 nM. In data set [3], the dissociation constant (Kd) amounted to 1200 nM.

`O=C(O)CCCc1ccccc1CC1C2CCC(O2)C1/C=N/NC(=O)Nc1ccccc1` (stereo not drawn): the T50 in data set [4] was determined as 8.7 h. In addition, the IC50 in data set [1] amounted to 12 nM; in data set [2], 72 nM. Moreover, binding in data set [3] was put at a Kd of 21.1 nM.

`O=C(O)CCc1ccccc1CC1C2CCC(O2)C1/C=N/NC(=O)Nc1ccccc1` (stereo not drawn) had a T50 in data set [4] of 16 h. Further, the IC50 is 3 nM in data set [1] and 12 nM in data set [2]. This molecule also gave a Kd in data set [3] of 1 nM.

In turn, `O=C(O)COc1ccccc1CC1C2CCC(O2)C1/C=N/NC(=O)Nc1ccccc1` (stereo not drawn) yielded a T50 in data set [4] of 3.6 h. In addition, the IC50 in data set [1] was determined as 15 nM; in data set [2], 46 nM. In data set [3], this molecule displayed a Kd of 6 nM.

On to `O=C(O)Cc1cccc(CC2C3CCC(O3)C2/C=N/NC(=O)Nc2ccccc2)c1` (stereo not drawn), for which the results for the T50 in data set [4] and in data set [5] were 1.7 h and 8.3 h, respectively. Besides, the IC50 in data set [1] is 370 nM; in data set [2], 4600 nM. In data set [3], the Kd was 171 nM.

With `O=C(O)Cc1cccc(CCC2C3CCC(O3)C2/C=N/NC(=O)Nc2ccccc2)c1` (stereo not drawn), the IC50 was 30000 nM in data set [1] and 133000 nM in data set [2]. The molecule also registered a Kd in data set [3] of 1070 nM.

Consider `O=C(O)Cc1ccc(CC2C3CCC(O3)C2/C=N/NC(=O)Nc2ccccc2)cc1` (stereo not drawn), for which the IC50 in data set [1] amounted to 310000 nM.
